This passage reports IC50 and NA results from ChEMBL document CHEMBL1134571, “Photochemical synthesis of N-arylbenzophenanthridine selective estrogen receptor modulators (serms)” (J Med Chem, 2001).

For assay [1], the system named is MCF7. In words: Inhibition of 17-beta-estradiol induced MCF-7 cell proliferation. The class given is functional, cell-based. As to conditions: Homo sapiens.
Assay [2] deals with Estrogen receptor (Homo sapiens) (UniProt Q92731+P03372). In words: Relative binding affinity(RBA) as displacement of [3H]17-beta-estradiol from MCF-7 cell lysate;NA=not active. Type of assay: cell-based.
The subject of assay [3] is MCF7. In words: Inhibition of 17-beta-estradiol induced MCF-7 cell proliferation;NA=not active. Type of assay: functional, cell-based. As to conditions: Homo sapiens.
Assay [4] concerns MCF7. In words: Inhibition of 17-beta-estradiol induced MCF-7 cell proliferation; NA=not active. The class given is functional, cell-based. To be noted: Homo sapiens.

The source made the active and inactive calls. No cut-off for these calls is given here.

In turn, `COc1ccc2c(c1)CN(c1ccc(OCCN3CCCCC3)cc1)c1c-2ccc2cc(OC)ccc12` displayed an IC50 with MCF7 [1] of 19 nM.
In the assay on MCF7 [1], `O=c1c2cc(O)ccc2c2c(n1-c1ccc(OCCN3CCCCC3)cc1)-c1ccc(O)cc1CC2` came in with an IC50 of 128 nM.
As for `COc1ccc2c(ccc3c4ccc(OC)cc4c(=O)n(-c4ccc(OCCN5CCCCC5)cc4)c23)c1`, the NA result (in assay [2]; with MCF7 [3]) was “inactive” each time.
Turning to `COc1ccc2c(c1)CN(c1ccc(OCCN3CCCCC3)cc1)C1=C2CCc2cc(OC)ccc21`, the IC50 in the assay on MCF7 [1] is 287 nM.
Molecule `Oc1ccc2c(c1)CN(c1ccc(OCCN3CCCCC3)cc1)c1c-2ccc2cc(O)ccc12` showed an IC50 in the assay with MCF7 [1] of 1 nM.
Regarding `C[C@]12CC[C@@H]3c4ccc(O)cc4CC[C@H]3[C@@H]1CC[C@@H]2O`, the NA entry with MCF7 [4] was “inactive”.
Consider `O=c1c2cc(O)ccc2c2ccc3cc(O)ccc3c2n1-c1ccc(OCCN2CCCCC2)cc1`, for which, in the assay on MCF7 [3], the NA entry was “inactive”.

The term IC50 denotes the point on the concentration scale where inhibition reaches its midpoint. High values mean lower potency, low ones higher potency.
